Converted amounts (≈) assume the structure as drawn.
Legend:
Type in all cases: functional
Streptococcus pneumoniae [1] = test: Antimicrobial activity against erythromycin-susceptible Streptococcus pneumoniae ATCC 49619 by broth microdilution method
Streptococcus pneumoniae [2] = test: Antimicrobial activity against erythromycin-resistant Streptococcus pneumoniae B1 expressing the erm gene by broth microdilution method
Streptococcus pneumoniae [3] = test: Antimicrobial activity against erythromycin-resistant Streptococcus pneumoniae A22072 expressing the mef gene by broth microdilution method
Streptococcus pneumoniae [4] = test: Antimicrobial activity against erythromycin-resistant Streptococcus pneumoniae AB11 expressing the erm and mef gene by broth microdilution method
Staphylococcus aureus [5] = test: Antimicrobial activity against erythromycin-susceptible Staphylococcus aureus ATCC 25923 by broth microdilution method
Staphylococcus aureus [6] = test: Antimicrobial activity against penicillin-susceptible Staphylococcus aureus P1 by broth microdilution method
Streptococcus pyogenes [7] = test: Antimicrobial activity against erythromycin-susceptible Streptococcus pyogenes S2 by broth microdilution method
Streptococcus pyogenes [8] = test: Antimicrobial activity against erythromycin-resistant Streptococcus pyogenes R2 by broth microdilution method

| SMILES | MIC (Streptococcus pneumoniae [1]) [µg/mL] | MIC (Streptococcus pneumoniae [2]) [µg/mL] | MIC (Streptococcus pneumoniae [3]) [µg/mL] | MIC (Streptococcus pneumoniae [4]) [µg/mL] | MIC (Staphylococcus aureus [5]) [µg/mL] | MIC (Staphylococcus aureus [6]) [µg/mL] | MIC (Streptococcus pyogenes [7]) [µg/mL] | MIC (Streptococcus pyogenes [8]) [µg/mL] |
| --- | --- | --- | --- | --- | --- | --- | --- | --- |
| CC[C@H]1OC(=O)[C@H](C)[C@@H](O[C@H]2C[C@@](C)(OC)[C@@H](O)[C@H](C)O2)[C@H](C)[C@@H](O[C@@H]2O[C@H](C)C[C@H](N(C)C)[C@H]2O)[C@](C)(O)C[C@@H](C)C(=O)[C@H](C)[C@@H](O)[C@]1(C)O [ERYTHROMYCIN] | 0.03 (≈ 0.0409 µM) | 128 (≈ 174 µM) | 8 (≈ 10.9 µM) | 256 (≈ 349 µM) | 0.25 (≈ 0.341 µM) | 0.25 (≈ 0.341 µM) | 0.03 (≈ 0.0409 µM) | 4 (≈ 5.45 µM) |
| CCCCCNC(=O)O[C@H]1[C@H](C)O[C@@H](O[C@H]2[C@H](C)[C@@H](O[C@@H]3O[C@H](C)C[C@H](N(C)C)[C@H]3O)[C@](C)(OC)C[C@@H](C)C(=O)[C@H](C)[C@@H](O)[C@](C)(O)[C@@H](CC)OC(=O)[C@@H]2C)C[C@@]1(C)OC | 0.06 (≈ 0.0697 µM) | 32 (≈ 37.2 µM) | 0.25 (≈ 0.29 µM) | 128 (≈ 149 µM) | 0.25 (≈ 0.29 µM) | 16 (≈ 18.6 µM) | 0.03 (≈ 0.0348 µM) | 0.12 (≈ 0.139 µM) |
| CCCCNC(=O)O[C@H]1[C@H](C)O[C@@H](O[C@H]2[C@H](C)[C@@H](O[C@@H]3O[C@H](C)C[C@H](N(C)C)[C@H]3O)[C@](C)(OC)C[C@@H](C)C(=O)[C@H](C)[C@@H](O)[C@](C)(O)[C@@H](CC)OC(=O)[C@@H]2C)C[C@@]1(C)OC | 0.25 (≈ 0.295 µM) | 64 (≈ 75.6 µM) | 1 (≈ 1.18 µM) | 64 (≈ 75.6 µM) | 0.25 (≈ 0.295 µM) | 8 (≈ 9.44 µM) | 0.25 (≈ 0.295 µM) | 4 (≈ 4.72 µM) |
| CC[C@H]1OC(=O)[C@H](C)[C@@H](O[C@H]2C[C@@](C)(OC)[C@@H](OC(=O)NCCc3ccc(O)cc3)[C@H](C)O2)[C@H](C)[C@@H](O[C@@H]2O[C@H](C)C[C@H](N(C)C)[C@H]2O)[C@](C)(OC)C[C@@H](C)C(=O)[C@H](C)[C@@H](O)[C@]1(C)O | 0.12 (≈ 0.132 µM) | 128 (≈ 140 µM) | 4 (≈ 4.39 µM) | 128 (≈ 140 µM) | 0.25 (≈ 0.274 µM) | 16 (≈ 17.6 µM) | 0.03 (≈ 0.0329 µM) | 0.25 (≈ 0.274 µM) |
| CC[C@H]1OC(=O)[C@H](C)[C@@H](O[C@H]2C[C@@](C)(OC)[C@@H](OC(=O)NCCCC(=O)NCCc3ccc(O)cc3)[C@H](C)O2)[C@H](C)[C@@H](O[C@@H]2O[C@H](C)C[C@H](N(C)C)[C@H]2O)[C@](C)(OC)C[C@@H](C)C(=O)[C@H](C)[C@@H](O)[C@]1(C)O | 0.03 (≈ 0.0301 µM) | 0.25 (≈ 0.251 µM) | 0.5 (≈ 0.502 µM) | 1 (≈ 1 µM) | 0.5 (≈ 0.502 µM) | 9 (≈ 9.03 µM) | 0.5 (≈ 0.502 µM) | 8 (≈ 8.03 µM) |
| CC[C@H]1OC(=O)[C@H](C)[C@@H](O[C@H]2C[C@@](C)(OC)[C@@H](OC(=O)NCCCC(=O)NC3CCCCC3)[C@H](C)O2)[C@H](C)[C@@H](O[C@@H]2O[C@H](C)C[C@H](N(C)C)[C@H]2O)[C@](C)(OC)C[C@@H](C)C(=O)[C@H](C)[C@@H](O)[C@]1(C)O | 0.03 (≈ 0.0313 µM) | 32 (≈ 33.4 µM) | 2 (≈ 2.09 µM) | 64 (≈ 66.8 µM) | 0.5 (≈ 0.522 µM) | 8 (≈ 8.35 µM) | 0.25 (≈ 0.261 µM) | 8 (≈ 8.35 µM) |
| CCCNC(=O)CCCCCNC(=O)O[C@H]1[C@H](C)O[C@@H](O[C@H]2[C@H](C)[C@@H](O[C@@H]3O[C@H](C)C[C@H](N(C)C)[C@H]3O)[C@](C)(OC)C[C@@H](C)C(=O)[C@H](C)[C@@H](O)[C@](C)(O)[C@@H](CC)OC(=O)[C@@H]2C)C[C@@]1(C)OC | 0.03 (≈ 0.0317 µM) | 128 (≈ 135 µM) | 4 (≈ 4.23 µM) | 128 (≈ 135 µM) | 0.5 (≈ 0.528 µM) | 2 (≈ 2.11 µM) | 0.03 (≈ 0.0317 µM) | 16 (≈ 16.9 µM) |
| CC[C@H]1OC(=O)[C@H](C)[C@@H](O[C@H]2C[C@@](C)(OC)[C@@H](OC(=O)NCCCCCC(=O)NCc3ccc(OC)cc3)[C@H](C)O2)[C@H](C)[C@@H](O[C@@H]2O[C@H](C)C[C@H](N(C)C)[C@H]2O)[C@](C)(OC)C[C@@H](C)C(=O)[C@H](C)[C@@H](O)[C@]1(C)O | 0.03 (≈ 0.0293 µM) | 64 (≈ 62.5 µM) | 0.5 (≈ 0.488 µM) | 64 (≈ 62.5 µM) | 0.12 (≈ 0.117 µM) | 1 (≈ 0.976 µM) | 0.12 (≈ 0.117 µM) | 32 (≈ 31.2 µM) |
| CC[C@H]1OC(=O)[C@H](C)[C@@H](O[C@H]2C[C@@](C)(OC)[C@@H](OC(=O)NCCc3ccccc3Cl)[C@H](C)O2)[C@H](C)[C@@H](O[C@@H]2O[C@H](C)C[C@H](N(C)C)[C@H]2O)[C@](C)(OC)C[C@@H](C)C(=O)[C@H](C)[C@@H](O)[C@]1(C)O | 0.06 (≈ 0.0645 µM) | 16 (≈ 17.2 µM) | 0.5 (≈ 0.538 µM) | 32 (≈ 34.4 µM) | 0.12 (≈ 0.129 µM) | 0.25 (≈ 0.269 µM) | 0.03 (≈ 0.0323 µM) | 0.5 (≈ 0.538 µM) |
